How the values were obtained:
[1] = Pharmacokinetic test after intragastric administration; assay type: in vivo; conditions: Sprague-Dawley, mouse, plasma, po, SD mice, 5 mg/kg intragastric
Procedure: Drug concentrations of compounds H01, H07, H11, H12, H14, H15, H22, H25, H29, H30, H33, H39 and H44 intragastrically administrated in plasma by using LC/MS/MS method at various time points were determined by using Sprague-Dawley (SD) […], aged 7-8 weeks and weighing […] as test animals. Pharmacokinetic behavior of the compounds of the invention in […] was studied and its pharmacokinetic characteristics were evaluated.
A certain amount of compounds was taken and dissolved in 50% PEG400/water to prepare a uniform solution.
Mice were administered intragastrically with the above compounds with a dosage of 5 mg/kg. Blood (0.2 ml) was taken from orbits before administration and 0.083 h, 0.25 h, 0.5 h, 1.0 h, 2.0 h, 4.0 h, 6.0 h, 8.0 h, 12.0 h and 24.0 h after administration. The blood was placed in anticoagulant tubes containing dipotassium ethylene glycol diethyl ether diamine tetraacetic acid, centrifugated at 6000 rpm at 4° C. for 10 minutes to separate plasma and saved at −80° C.
50 μL plasma at various time was taken and 150 μL acetonitrile solution containing internal standard tolbutamide (Sigma, USA) was added, mixed and stirred for 5 minutes. After centrifugation for 5 minutes at 12,000 rpm, 100 μL supernatant was taken, mixed with 200 μL water, following by sample injection and analysis.
Liquid chromatogram system was LC-20AD UFLC High Performance Liquid Chromatography system. Mass spectrum system was AB Sciex API4000 triple quadrupole mass spectrometer equipped with Electron Spray Ionization (ESI) (Applied Biosystems, Canada). A software for controlling liquid chromatography-mass spectrometry and quantitative analysis was Anna Rust 1.6 (Applied Biosystems, Canada). Pharmacokinetic parameters were analyzed by WinNonlin (version 5.2, Pharsight, Mountain View, […]) non-compartment model.
The test compound was dissolved in dimethyl sulfoxide to prepare a stock solution with a concentration of 1 mg/mL. The solution was diluted with 50% acetonitrile to obtain a series of standard working solutions with concentrations of 10 μg/mL, 3 μg/mL, 1 μg/mL, 0.3 μg/mL, 0.1 μg/mL, 0.03 μg/mL and 0.01 μg/mL, and a series of standard quality control solutions with concentrations of 8 μg/mL, 0.5 μg/mL, 0.03 μg/mL. 5 μL standard solution was mixed with 45 μL blank plasma substrate uniformly to obtain standard solutions of each concentration of a standard curve (1000 ng/mL, 500 ng/mL, 200 ng/mL, 100 ng/mL, 10 ng/mL, 5 ng/mL, 2 and 1 ng/mL) and quality control solutions (plasma samples: 800 ng/mL, 50 and 3 ng/mL).
Internal standard tolbutamide solid powder was dissolved in dimethyl sulfoxide to prepare a 1 mg/mL stock solution. The stock solution was diluted with 100% acetonitrile to obtain 200 ng/mL solution as a protein precipitation solution.

hERG potassium channel = hERG potassium channel (Homo sapiens (Human), UniProt Q12809); experiment: hERG potassium channel current, manual patch clamp; assay type: cell-based; conditions: HEK293 cells overexpressing hERG potassium channel, whole-cell patch clamp; read-out: IC50 (μM) inhibiting hERG current
Procedure: Effects of compounds H07, H12, H14, H25, H30, H39 and H44 on hERG potassium channel were detected by applying electrophysiological manual patch clamp to study an initial cardiac safety of the compounds of the invention.
Test compounds were dissolved in dimethyl sulfoxide to prepare mother solutions (10 mM, 3.3 mM, 1.1 mM and 0.37 mM). Next an extracellular fluid was used for secondary dilution so that the test solution had final concentrations of 30 μM, 10 μM, 3.3 μM, 1.1 μM and 0.37 μM.
Extracellular fluids: 130 mM sodium chloride, 4 mM potassium chloride, 1.8 mM calcium chloride, 1 mM magnesium chloride, 10 mM glucose, 10 mM 4-hydroxyethylpiperazine ethane sulfonic acid (pH 7.4)
Intracellular fluid: 130 mM potassium chloride, 1 mM magnesium chloride, 5 mM ethylene glycol diethyl ether diamine tetraacetic acid, 5 mM triphosadenine and 10 mM 4-hydroxyethylpiperazine ethane sulfonic acid (pH7.2)
Compositions of a cell culture medium: Dulbecco's modified eagle medium (Grand Turk Island Biotechnology Company, 11330032), 15% fetal calf serum (Sigma, A15-101, USA), 1% penicillin-streptomycin (Biowest, L0022-100).
HEK293 cells overexpressing hERG potassium channel (from Dr. Mohamed Boutjdir's laboratory, School of Medicine, New York University—PharmaCore Labs, Inc.) were incubated in a medium consisting of Dulbecco's modified eagle medium/15% fetal calf serum/1% penicillin-streptomycin in a 5% CO2 incubator at 37° C. In the test, the cells were transferred to a cell bath embedded into a inverted microscope platform, and extracellular fluid was perfused. After stabilization for 5 minutes, the cells were precipitated and then the test could start. Membrane currents were recorded by using HEKA EPC-10 patch clamp amplifier and […] acquisition system (HEKA Instrument Co., Ltd., D-67466 Lambrcht, Palatinate, Germany). All tests were completed at room temperature (22-24° C.). P-97 microelectrode puller (Sutter Instrument Company, Novato, […] 94949) was used to straighten the electrodes (BF150-110-10). The inner diameter of the electrode was 1-1.5 mm, and the water resistance after internal liquid filling was 2-4 MΩ.
Tests were carried out in whole-cell recording mode, with current values recorded according to the electrophysiological stimulation protocol below. First, the membrane voltage was clamped at −80 mV, and the cells were stimulated with +20 mV for two seconds to activate hERG potassium channel, which was then repolarized to −50 mV for five seconds, producing an outward tail current with a stimulation frequency of every 15 seconds. The current value was a peak value of the tail current. In the test, the channel current was recorded in the whole-cell recording mode. First, extracellular fluid (about 2 ml per minute) was perfused and recorded continuously, and then the current was allowed to stabilize (current decay (run-down) was less than 5% within 5 minutes). At this time, the peak value of the tail current was the control current value. Subsequently, the extracellular fluid containing the drug to be tested was perfused and recorded continuously until the inhibiting effect of drug on hERG current reached a stable state, at which time the peak value of the tail current was the current value after adding drugs. After a stable situation was achieved, if hERG current recovered after perfusing and washing with extracellular fluid, perfusion could be continued to test other concentrations or drugs. The solution containing the drugs to be tested was perfused in descending order of concentration and the current values were recorded. […] V2X60 (HEKA Instrument Co., Ltd., D-67466 Lambrcht, Palatinate, Germany) was used to collect data. ORANGE 8.5 (ORANGE Laboratory Company, Northampton, UK) software was used for the analysis and statistics.

JAK2 = JAK2 (Homo sapiens (Human), UniProt O60674); experiment: JAK2 LANCE Ultra kinase assay; assay type: biochemical; conditions: 12 uM ATP
JAK3 = JAK3 (Homo sapiens (Human), UniProt P52333); experiment: JAK3 LANCE Ultra kinase assay; assay type: biochemical; conditions: 4 uM ATP
JAK3, sequence (P52333 whole entry): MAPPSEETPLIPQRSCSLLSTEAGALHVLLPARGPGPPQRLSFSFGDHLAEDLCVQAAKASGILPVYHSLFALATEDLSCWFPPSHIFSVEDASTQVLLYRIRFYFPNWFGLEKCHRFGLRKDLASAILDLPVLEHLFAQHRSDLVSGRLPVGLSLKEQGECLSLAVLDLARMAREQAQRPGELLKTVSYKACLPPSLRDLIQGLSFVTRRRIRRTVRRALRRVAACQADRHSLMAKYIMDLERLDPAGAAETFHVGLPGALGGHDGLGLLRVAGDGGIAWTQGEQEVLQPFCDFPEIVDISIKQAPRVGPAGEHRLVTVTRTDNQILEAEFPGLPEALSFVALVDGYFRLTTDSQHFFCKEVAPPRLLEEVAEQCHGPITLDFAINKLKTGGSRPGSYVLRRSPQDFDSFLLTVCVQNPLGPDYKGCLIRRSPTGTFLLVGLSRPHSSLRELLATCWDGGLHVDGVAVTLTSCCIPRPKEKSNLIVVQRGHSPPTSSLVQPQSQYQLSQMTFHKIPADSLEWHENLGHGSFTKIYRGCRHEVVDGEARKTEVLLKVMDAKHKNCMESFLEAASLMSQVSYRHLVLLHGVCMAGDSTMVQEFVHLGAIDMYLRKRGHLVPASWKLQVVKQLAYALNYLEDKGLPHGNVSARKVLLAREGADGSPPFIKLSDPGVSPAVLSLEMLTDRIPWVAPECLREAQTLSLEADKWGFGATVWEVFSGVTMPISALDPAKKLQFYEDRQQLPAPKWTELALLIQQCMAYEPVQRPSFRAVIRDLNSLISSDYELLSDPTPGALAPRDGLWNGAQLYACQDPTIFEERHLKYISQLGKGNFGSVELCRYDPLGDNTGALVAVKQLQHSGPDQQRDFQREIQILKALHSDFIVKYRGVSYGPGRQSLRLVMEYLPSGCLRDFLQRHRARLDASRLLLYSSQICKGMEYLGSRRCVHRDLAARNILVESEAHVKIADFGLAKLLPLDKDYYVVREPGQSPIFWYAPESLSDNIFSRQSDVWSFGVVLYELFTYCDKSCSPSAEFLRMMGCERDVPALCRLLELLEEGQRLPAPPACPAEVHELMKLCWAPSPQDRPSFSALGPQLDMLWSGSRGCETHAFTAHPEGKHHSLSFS

hERG potassium channel, sequence (Q12809 whole entry): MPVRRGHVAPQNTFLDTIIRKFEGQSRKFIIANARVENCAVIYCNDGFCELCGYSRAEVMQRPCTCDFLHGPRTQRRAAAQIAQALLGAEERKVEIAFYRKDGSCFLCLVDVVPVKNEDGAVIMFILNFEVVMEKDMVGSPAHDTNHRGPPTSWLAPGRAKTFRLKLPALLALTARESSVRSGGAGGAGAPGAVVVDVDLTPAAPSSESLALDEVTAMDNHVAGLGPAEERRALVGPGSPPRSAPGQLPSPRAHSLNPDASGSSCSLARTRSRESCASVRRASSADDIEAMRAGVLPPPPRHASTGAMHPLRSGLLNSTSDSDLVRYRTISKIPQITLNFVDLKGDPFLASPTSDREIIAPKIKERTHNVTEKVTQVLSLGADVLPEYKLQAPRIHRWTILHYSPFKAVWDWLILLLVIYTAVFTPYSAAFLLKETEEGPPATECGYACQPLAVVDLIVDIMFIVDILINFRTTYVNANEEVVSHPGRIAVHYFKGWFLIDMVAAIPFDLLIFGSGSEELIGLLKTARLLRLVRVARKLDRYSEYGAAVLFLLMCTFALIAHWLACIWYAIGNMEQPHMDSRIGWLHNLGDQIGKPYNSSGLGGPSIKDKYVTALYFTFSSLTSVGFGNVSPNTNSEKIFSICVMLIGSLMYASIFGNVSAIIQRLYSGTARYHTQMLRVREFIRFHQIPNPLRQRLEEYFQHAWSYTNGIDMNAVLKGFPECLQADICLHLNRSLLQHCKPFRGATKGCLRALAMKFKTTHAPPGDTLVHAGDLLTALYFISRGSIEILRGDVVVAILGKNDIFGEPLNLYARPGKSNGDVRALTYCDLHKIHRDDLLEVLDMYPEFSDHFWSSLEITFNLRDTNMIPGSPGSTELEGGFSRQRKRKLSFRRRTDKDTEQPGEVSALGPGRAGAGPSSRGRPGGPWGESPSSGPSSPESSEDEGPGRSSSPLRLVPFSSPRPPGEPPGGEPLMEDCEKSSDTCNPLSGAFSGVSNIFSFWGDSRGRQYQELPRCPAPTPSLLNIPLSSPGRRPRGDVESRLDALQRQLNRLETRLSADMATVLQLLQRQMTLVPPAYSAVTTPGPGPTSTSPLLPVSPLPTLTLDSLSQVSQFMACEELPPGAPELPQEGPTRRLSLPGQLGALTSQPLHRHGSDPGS
JAK2, sequence (O60674 whole entry): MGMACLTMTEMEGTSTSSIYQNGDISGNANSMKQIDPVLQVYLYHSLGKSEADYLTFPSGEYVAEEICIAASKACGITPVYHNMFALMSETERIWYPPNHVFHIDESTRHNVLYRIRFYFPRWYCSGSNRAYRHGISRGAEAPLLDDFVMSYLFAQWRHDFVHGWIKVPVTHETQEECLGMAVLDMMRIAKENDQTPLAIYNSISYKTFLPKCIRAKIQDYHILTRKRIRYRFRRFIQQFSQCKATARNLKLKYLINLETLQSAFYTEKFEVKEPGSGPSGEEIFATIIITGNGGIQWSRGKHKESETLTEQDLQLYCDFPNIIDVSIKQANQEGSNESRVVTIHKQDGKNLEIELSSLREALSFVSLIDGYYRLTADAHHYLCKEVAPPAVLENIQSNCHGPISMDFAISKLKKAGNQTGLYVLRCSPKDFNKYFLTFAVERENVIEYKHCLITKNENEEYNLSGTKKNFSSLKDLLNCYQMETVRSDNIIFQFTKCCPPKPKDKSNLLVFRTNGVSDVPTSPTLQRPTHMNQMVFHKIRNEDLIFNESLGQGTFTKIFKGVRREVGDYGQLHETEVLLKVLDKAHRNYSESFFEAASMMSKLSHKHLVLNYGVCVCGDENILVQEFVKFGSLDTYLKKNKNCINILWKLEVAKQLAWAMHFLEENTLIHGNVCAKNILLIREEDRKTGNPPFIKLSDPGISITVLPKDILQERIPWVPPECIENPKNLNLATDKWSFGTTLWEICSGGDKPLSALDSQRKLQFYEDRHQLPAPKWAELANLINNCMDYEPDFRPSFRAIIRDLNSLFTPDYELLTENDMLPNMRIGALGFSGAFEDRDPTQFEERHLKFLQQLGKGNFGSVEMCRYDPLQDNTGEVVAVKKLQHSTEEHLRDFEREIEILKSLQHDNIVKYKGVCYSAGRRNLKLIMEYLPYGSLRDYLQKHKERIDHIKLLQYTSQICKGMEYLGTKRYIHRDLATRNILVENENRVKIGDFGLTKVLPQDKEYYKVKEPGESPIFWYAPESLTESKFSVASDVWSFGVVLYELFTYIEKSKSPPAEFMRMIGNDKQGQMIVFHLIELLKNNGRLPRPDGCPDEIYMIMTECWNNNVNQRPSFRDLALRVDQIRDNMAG

AUC(0-t) ([1]; read-out: Area under the curve (AUC0-24, ng/ml · h)): 1680 ± 120 ng·h/mL | Cmax ([1]; read-out: Plasma concentration (Cmax, ng/ml)): 619 ± 39 ng/mL | half-life ([1]; read-out: half life (T1/2, h) (converted)): 4.17 ± 0.45 h | IC50 (JAK2): 15.6 nM | IC50 (JAK3): 80 nM
Compound: CN(c1c(C#N)cnc2[nH]ccc12)[C@H]1C[C@@H]2CN(C(=O)Nc3nc(OCC(C)(C)N)ns3)C[C@@H]2C1 [Compound H44, (3aR,5s,6aS)-5-((5-cyano-1H-pyrrolo[2,3-b]pyridin-4-yl)(methyl)amino)-N-(3-(2-amino-2-methyl-propoxy)-1,2,4-thiadiazole-5-yl)hexahydrocyclopentadiene[c]pyrrole-2(1H)-carboxamide]
IC50 (hERG potassium channel): > 30 µM
